Laboratory results published in ChEMBL document CHEMBL3885881, “DrugMatrix”.

Organism: Rattus norvegicus
Assay: DrugMatrix - Regimen: Daily Repeat
Type: toxicity, organism-based, Sprague-Dawley
Parameters: regimen Daily Repeat, gender Male, age 6-8 weeks
Settings: in vivo, po, route oral GAVAGE, […]; for CHLORIDE / CHOLESTEROL / CREATINE PHOSPHOKINASE / CREATININE / LACTATE DEHYDROGENASE / LIPASE / PHOSPHORUS / POTASSIUM / SODIUM / TOTAL BILIRUBIN / URIC ACID / ALANINE AMINOTRANSFERASE / ALBUMIN / ALKALINE PHOSPHATASE / ASPARTATE AMINOTRANSFERASE / BLOOD UREA NITROGEN / CARBON DIOXIDE: tissue Plasma; for ABSOLUTE BASOPHIL / ABSOLUTE EOSINOPHIL / ABSOLUTE LYMPHOCYTE / ABSOLUTE MONOCYTE / ABSOLUTE SEGMENTED NEUTROPHIL / BASOPHIL / EOSINOPHIL / ERYTHROCYTE COUNT / HEMATOCRIT / HEMOGLOBIN / LEUKOCYTE COUNT / LYMPHOCYTE / MEAN CORPUSCULAR HEMOGLOBIN / MEAN CORPUSCULAR HEMOGLOBIN CONCENTRATION / MEAN CORPUSCULAR VOLUME / NEUTROPHIL / NUCLEATED RED BLOOD CELLS / PLATELET COUNT: tissue Blood
[1] = 10 mg/kg, 120 h, dose level High, time 5 day
[2] = 72 h, dose 3.5 mg/Kg, dose level Low, time 3 day
[3] = 120 h, dose 3.5 mg/Kg, dose level High, time 5 day
[4] = 120 h, dose 3.5 mg/Kg, dose level Low, time 5 day
[5] = dose 3.5 mg/Kg, dose level High, time 28 day

O=C(O)Cc1ccccc1Nc1c(Cl)cccc1Cl [DICLOFENAC]
CHLORIDE [1]: 99 MEQ/L
CHOLESTEROL [1]: 69.33 mg/dL
CREATINE PHOSPHOKINASE [1]: 210.67 u/L
CREATININE [1]: 0.1 mg/dL
LACTATE DEHYDROGENASE [1]: 77.33 u/L
LIPASE [1]: 9 u/L
PHOSPHORUS [1]: 9.63 mg/dL
POTASSIUM [1]: 5.24 MEQ/L
SODIUM [1]: 140.7 MEQ/L
TOTAL BILIRUBIN [1]: 0.1 mg/dL
URIC ACID [1]: 0.57 mg/dL
ABSOLUTE BASOPHIL [2]: 0 CELLS/uL
ABSOLUTE EOSINOPHIL [2]: 99.33 CELLS/uL
ABSOLUTE LYMPHOCYTE [2]: 11383.33 CELLS/uL
ABSOLUTE MONOCYTE [2]: 144 CELLS/uL
ABSOLUTE SEGMENTED NEUTROPHIL [2]: 540 CELLS/uL
BASOPHIL [2]: 0%
EOSINOPHIL [2]: 0.67%
ERYTHROCYTE COUNT [2]: 5.83 x10E6/uL
HEMATOCRIT [2]: 36.37%
HEMOGLOBIN [2]: 14 G/DL
LEUKOCYTE COUNT [2]: 12.17 x10E3/uL
LYMPHOCYTE [2]: 92.67%
MEAN CORPUSCULAR HEMOGLOBIN [2]: 24.03 pg
MEAN CORPUSCULAR HEMOGLOBIN CONCENTRATION [2]: 38.47 G/DL
MEAN CORPUSCULAR VOLUME [2]: 62.37 fL
NEUTROPHIL [2]: 5.33%
NUCLEATED RED BLOOD CELLS [2]: 0 /100WBC
PLATELET COUNT [2]: 741.67 x10E3/uL
ALANINE AMINOTRANSFERASE [2]: 65.67 u/L
ALBUMIN [2]: 4.03 G/DL
ALKALINE PHOSPHATASE [2]: 385.67 u/L
ASPARTATE AMINOTRANSFERASE [2]: 76.33 u/L
BLOOD UREA NITROGEN [2]: 14 mg/dL
CARBON DIOXIDE [2]: 34 mmol/L
CHLORIDE [2]: 101 MEQ/L
CHOLESTEROL [2]: 82.33 mg/dL
CREATINE PHOSPHOKINASE [2]: 146 u/L
CREATININE [2]: 0.13 mg/dL
LACTATE DEHYDROGENASE [2]: 92.67 u/L
LIPASE [2]: 12.33 u/L
PHOSPHORUS [2]: 9.37 mg/dL
POTASSIUM [2]: 5.57 MEQ/L
SODIUM [2]: 145.37 MEQ/L
TOTAL BILIRUBIN [2]: 0.2 mg/dL
URIC ACID [2]: 0.93 mg/dL
BASOPHIL [3]: 0.32%
EOSINOPHIL [3]: 0.48%
ERYTHROCYTE COUNT [3]: 7.46 x10E6/uL
HEMATOCRIT [3]: 47.98%
HEMOGLOBIN [3]: 15.12 G/DL
LEUKOCYTE COUNT [3]: 9.78 x10E3/uL
LYMPHOCYTE [3]: 81.22%
MEAN CORPUSCULAR HEMOGLOBIN [3]: 20.28 pg
MEAN CORPUSCULAR HEMOGLOBIN CONCENTRATION [3]: 31.52 G/DL
MEAN CORPUSCULAR VOLUME [3]: 64.32 fL
NEUTROPHIL [3]: 15.22%
PLATELET COUNT [3]: 1323.2 x10E3/uL
ABSOLUTE BASOPHIL [4]: 0 CELLS/uL
ABSOLUTE EOSINOPHIL [4]: 66 CELLS/uL
ABSOLUTE LYMPHOCYTE [4]: 7679.67 CELLS/uL
ABSOLUTE MONOCYTE [4]: 26 CELLS/uL
ABSOLUTE SEGMENTED NEUTROPHIL [4]: 795 CELLS/uL
BASOPHIL [4]: 0%
EOSINOPHIL [4]: 0.67%
ERYTHROCYTE COUNT [4]: 5.41 x10E6/uL
HEMATOCRIT [4]: 32.77%
HEMOGLOBIN [4]: 13.13 G/DL
LEUKOCYTE COUNT [4]: 8.57 x10E3/uL
LYMPHOCYTE [4]: 90%
MEAN CORPUSCULAR HEMOGLOBIN [4]: 24.33 pg
MEAN CORPUSCULAR HEMOGLOBIN CONCENTRATION [4]: 40.1 G/DL
MEAN CORPUSCULAR VOLUME [4]: 60.7 fL
NEUTROPHIL [4]: 9%
NUCLEATED RED BLOOD CELLS [4]: 0.33 /100WBC
PLATELET COUNT [4]: 1098.67 x10E3/uL
ALANINE AMINOTRANSFERASE [3]: 32 u/L
ALBUMIN [3]: 3.72 G/DL
ALKALINE PHOSPHATASE [3]: 340 u/L
ASPARTATE AMINOTRANSFERASE [3]: 77.6 u/L
BLOOD UREA NITROGEN [3]: 6.8 mg/dL
CHLORIDE [3]: 110 MEQ/L
CHOLESTEROL [3]: 66.4 mg/dL
CREATINE PHOSPHOKINASE [3]: 178.25 u/L
CREATININE [3]: 0.26 mg/dL
PHOSPHORUS [3]: 13.9 mg/dL
POTASSIUM [3]: 6.42 MEQ/L
SODIUM [3]: 150.8 MEQ/L
TOTAL BILIRUBIN [3]: 0.16 mg/dL
ALANINE AMINOTRANSFERASE [4]: 70.33 u/L
ALBUMIN [4]: 4 G/DL
ALKALINE PHOSPHATASE [4]: 422.67 u/L
ASPARTATE AMINOTRANSFERASE [4]: 77.67 u/L
CARBON DIOXIDE [4]: 32 mmol/L
CHLORIDE [4]: 99.5 MEQ/L
CHOLESTEROL [4]: 58.67 mg/dL
CREATININE [4]: 0.13 mg/dL
LACTATE DEHYDROGENASE [4]: 79 u/L
LIPASE [4]: 12.33 u/L
PHOSPHORUS [4]: 9.27 mg/dL
POTASSIUM [4]: 5.62 MEQ/L
SODIUM [4]: 142.7 MEQ/L
TOTAL BILIRUBIN [4]: 0.2 mg/dL
URIC ACID [4]: 0.5 mg/dL
BASOPHIL [5]: 0.51%
EOSINOPHIL [5]: 0.62%
ERYTHROCYTE COUNT [5]: 8.14 x10E6/uL
HEMATOCRIT [5]: 48.9%
HEMOGLOBIN [5]: 15.9 G/DL
LEUKOCYTE COUNT [5]: 10.63 x10E3/uL
LYMPHOCYTE [5]: 82.51%
MEAN CORPUSCULAR HEMOGLOBIN [5]: 19.56 pg
MEAN CORPUSCULAR HEMOGLOBIN CONCENTRATION [5]: 32.5 G/DL
MEAN CORPUSCULAR VOLUME [5]: 60.18 fL
NEUTROPHIL [5]: 13.48%
PLATELET COUNT [5]: 1264.5 x10E3/uL
ALANINE AMINOTRANSFERASE [5]: 29.7 u/L
ALBUMIN [5]: 3.93 G/DL
ALKALINE PHOSPHATASE [5]: 205 u/L
ASPARTATE AMINOTRANSFERASE [5]: 68.5 u/L
BLOOD UREA NITROGEN [5]: 12.1 mg/dL
CHLORIDE [5]: 109.6 MEQ/L
CHOLESTEROL [5]: 55.2 mg/dL
CREATINE PHOSPHOKINASE [5]: 206.4 u/L
CREATININE [5]: 0.51 mg/dL
PHOSPHORUS [5]: 11.24 mg/dL
POTASSIUM [5]: 6.38 MEQ/L
SODIUM [5]: 154.6 MEQ/L
TOTAL BILIRUBIN [5]: 0.21 mg/dL
